# Results as given in patent US20150051257A1, “SULPHONAMIDE DERIVATIVES OF BENZYLAMINE FOR THE TREATMENT OF CNS DISEASES” (ADAMED SP. Z O.O, priority 2012, published 2015).
# Assays:
# [1] = molecular target: T1, hERG potassium channels (KCNH2 gene, expressed in CHO cells) (Homo sapiens, UniProt Q12809); assay: Ability to block hERG potassium channel (electrophysiology, IonWorks Quattro); format: cell-based; conditions: cloned hERG in CHO cells; test pulse +40 mV; concentration not given
# T1 construct: expressed in transfected cells; host or cells: CHO cells
# Method: Ability to Block hERG Potassium Channel Ability to block hERG potassium channels was determined using the electrophysiological method and cloned hERG potassium channels (KCNH2 gene, expressed in CHO cells) as biological material. The effects were evaluated using IonWorks™ Quattro system (MDS-AT).
# hERG current was elicited using a pulse pattern with fixed amplitudes (conditioning pre-pulse: −80 mV for 25 ms; test pulse: +40 mV for 80 ms) from a holding potential of 0 mV. hERG current was measured as a difference between the peak current at 1 ms after the test step to +40 mV and the steady-state current at the end of the step to +40 mV.
# Data acquisition and analyses were performed using the lonWorks Quattro™ system operation software (version 2.0.2; Molecular Devices Corporation, Union City, Calif.). Data were corrected for leak current.
# The hERG block was calculated as: % Block=(1−I TA/IControl)×100%, where IControl and ITA were the currents elicited by the test pulse in control and in the presence of a test compound, respectively.
# Male CD-1 mice = assay: d-Amphetamine-induced locomotor hyperactivity in mice; format: in vivo; conditions: compound i.p., d-amphetamine s.c., immediately before the test, ambulation counted during 2 h
# Method: Potential antipsychotic activity was tested for the representative compound 60 in mouse model of psychosis, involving the induction of locomotor hyperactivity by administering psychotomimetic substance—d-amphetamine. The ability of a test compound to remove that effect is a measure of potential antipsychotic activity.
# Male CD-1 mice weighing 20-22 g derived from accredited animal facility localized at Medical College of Jagiellonian University were group-housed for 3-4 day period in polycarbonate Makrolon type 3 cages (dimensions 26.5×15×42 cm) in an environmentally controlled, experimental room (ambient temperature 22-20C; relative humidity 50-60%; 12:12 light:dark cycle, lights on at 8:00), in groups of 15. Standard laboratory food (Morigram, Agropol) and filtered water were freely available. On the day before experiments the equipment produces “white noise” was turned on for 30 minutes and mice or rats were weighted exact to 1 g. Animals were assigned randomly to treatment groups. […]
# The locomotor activity was recorded with an Opto M3 multi-channel activity monitor (MultiDevice Software v.1.3, Columbus Instruments). Mice were individually placed in plastic cages (22×12×13 cm) and then the crossings of each channel (ambulation) were counted during 2 h with data recording every 5 minutes. […]
# D2S (h) = molecular target: T2, D2S (h) (Homo sapiens, UniProt P14416); assay: Radioligand binding assay, dopaminergic receptor D2; conditions: test compound 1×10^−6M; [3H]methyl-spiperone; human recombinant (HEK-293 cells)
# T2 construct: expressed in transfected cells; host or cells: HEK-293 cells
# Method: (§1) Specific ligand binding to the receptors is defined as the difference between the total binding and the non-specific binding determined in the presence of an excess of unlabelled ligand.
# (§2) The results are expressed as a percent of control specific binding ((measured specific binding/control specific binding)×100%) obtained in the presence of the test compounds. The compounds were tested for their affinity to receptors at a concentration of 1×10^−6M.
# (§3) Conditions and methodology of in vitro tests are given by reference to the literature in Table 1, and the results of tests for representative compounds are given in Table 2 (dopaminergic receptors D2 and D3), in Table 3 (dopaminergic receptors D1 and D4.4), in Table 4 (serotoninergic receptors 5-HT1A, 5-HT2A, 5-HT6, 5-HT7), in table 5 (serotoninergic receptors 5-HT2C), in Table 6 (sigma o receptors), in Table 7 (adrenergic receptors α1, histaminergic receptors H1 and muscarinic receptors M3), in Table 8 (adrenergic receptors α2C) and in Table 9 (serotonin transporter receptors SERT).
# D3 (h) = molecular target: T3, D3 (h) (Homo sapiens, UniProt P35462); assay: Radioligand binding assay, dopaminergic receptor D3; conditions: test compound 1×10^−6M; [3H]methyl-spiperone; human recombinant (CHO cells)
# T3 construct: expressed in transfected cells; host or cells: CHO cells
# Method: as §1, §2, §3
# D1 (h) = molecular target: T4, D1 (h) (Homo sapiens, UniProt P21728); assay: Radioligand binding assay, dopaminergic receptor D1; conditions: test compound 1×10^−6M; [3H]SCH 23390; human recombinant (CHO cells)
# T4 construct: expressed in transfected cells; host or cells: CHO cells
# Method: as §1, §2, §3
# D4.4 (h) = molecular target: T5, D4.4 (h) (Homo sapiens, UniProt P21917); assay: Radioligand binding assay, dopaminergic receptor D4.4; conditions: test compound 1×10^−6M; [3H]methyl-spiperone; human recombinant (CHO cells)
# T5 construct: expressed in transfected cells; host or cells: CHO cells
# T5 sequence (P21917 1-419): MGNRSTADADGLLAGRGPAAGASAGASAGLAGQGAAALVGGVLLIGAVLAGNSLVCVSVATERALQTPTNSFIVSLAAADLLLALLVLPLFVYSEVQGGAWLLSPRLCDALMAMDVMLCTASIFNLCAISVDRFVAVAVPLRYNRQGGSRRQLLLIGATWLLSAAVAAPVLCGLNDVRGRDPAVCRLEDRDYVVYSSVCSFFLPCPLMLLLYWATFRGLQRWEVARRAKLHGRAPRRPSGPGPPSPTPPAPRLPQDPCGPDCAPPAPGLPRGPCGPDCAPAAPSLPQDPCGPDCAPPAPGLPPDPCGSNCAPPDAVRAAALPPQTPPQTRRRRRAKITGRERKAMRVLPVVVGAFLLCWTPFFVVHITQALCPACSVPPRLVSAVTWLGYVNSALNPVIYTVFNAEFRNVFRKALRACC
# Method: as §1, §2, §3
# 5-HT1A (h) = molecular target: T6, 5-HT1A (h) (Homo sapiens, UniProt P08908); assay: Radioligand binding assay, serotoninergic receptor 5-HT1A; conditions: test compound 1×10^−6M; [3H]8-OH-DPAT; human recombinant (HEK-293 cells)
# T6 construct: expressed in transfected cells; host or cells: HEK-293 cells
# T6 sequence (P08908 1-422): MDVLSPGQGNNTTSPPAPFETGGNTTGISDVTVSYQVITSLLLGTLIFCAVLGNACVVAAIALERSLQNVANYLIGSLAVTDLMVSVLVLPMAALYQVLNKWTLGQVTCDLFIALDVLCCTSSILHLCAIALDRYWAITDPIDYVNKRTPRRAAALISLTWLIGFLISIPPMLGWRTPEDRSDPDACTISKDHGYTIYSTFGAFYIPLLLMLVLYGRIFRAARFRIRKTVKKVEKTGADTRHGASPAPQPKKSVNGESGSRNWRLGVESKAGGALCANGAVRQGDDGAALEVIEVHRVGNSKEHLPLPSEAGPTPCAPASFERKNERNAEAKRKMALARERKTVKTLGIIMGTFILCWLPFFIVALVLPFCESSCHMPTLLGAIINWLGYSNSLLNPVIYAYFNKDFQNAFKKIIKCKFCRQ
# Method: as §1, §2, §3
# 5-HT2A (h) = molecular target: T7, 5-HT2A (h) (Homo sapiens, UniProt P28223); assay: Radioligand binding assay, serotoninergic receptor 5-HT2A; conditions: test compound 1×10^−6M; [3H]ketanserin; human recombinant (HEK-293 cells)
# T7 construct: expressed in transfected cells; host or cells: HEK-293 cells
# Method: as §1, §2, §3
# 5-HT6 (h) = molecular target: T8, 5-HT6 (h) (Homo sapiens, UniProt P50406); assay: Radioligand binding assay, serotoninergic receptor 5-HT6; conditions: test compound 1×10^−6M; [3H]LSD; human recombinant (CHO cells)
# T8 construct: expressed in transfected cells; host or cells: CHO cells
# Method: as §1, §2, §3
# 5-HT7 (h) = molecular target: T9, 5-HT7 (h) (Homo sapiens, UniProt P34969); assay: Radioligand binding assay, serotoninergic receptor 5-HT7; conditions: test compound 1×10^−6M; [3H]LSD; human recombinant (CHO cells)
# T9 construct: expressed in transfected cells; host or cells: CHO cells
# Method: as §1, §2, §3
# 5-HT2C (h) = molecular target: T10, 5-HT2C (h) (Homo sapiens, UniProt P28335); assay: Radioligand binding assay, serotoninergic receptor 5-HT2C; conditions: test compound 1×10^−6M; [3H]mesulergine; human recombinant (HEK-293 cells)
# T10 construct: expressed in transfected cells; host or cells: HEK-293 cells
# T10 sequence (P28335 33-458): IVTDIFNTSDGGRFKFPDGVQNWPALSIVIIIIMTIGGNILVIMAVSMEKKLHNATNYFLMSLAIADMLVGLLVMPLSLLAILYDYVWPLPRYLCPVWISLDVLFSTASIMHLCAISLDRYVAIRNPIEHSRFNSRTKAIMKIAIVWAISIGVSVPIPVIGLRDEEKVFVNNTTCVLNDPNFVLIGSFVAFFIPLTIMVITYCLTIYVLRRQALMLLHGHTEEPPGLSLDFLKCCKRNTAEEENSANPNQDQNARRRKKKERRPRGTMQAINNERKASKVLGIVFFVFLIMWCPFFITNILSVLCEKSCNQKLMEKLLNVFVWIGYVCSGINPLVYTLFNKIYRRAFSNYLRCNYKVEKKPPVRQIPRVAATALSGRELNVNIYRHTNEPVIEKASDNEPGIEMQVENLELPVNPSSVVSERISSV
# Method: as §1, §2, §3
# σ (non-selective) = assay: Radioligand binding assay, σ receptors; conditions: test compound 1×10^−6M; [3H]DTG; rat cerebral cortex
# Method: as §1, §2, §3
# α1 (non-selective) = assay: Radioligand binding assay, adrenergic α1 receptors; conditions: test compound 1×10^−6M; [3H]prazosin; rat cerebral cortex
# Method: as §1, §2, §3
# H1 (h) = molecular target: T11, H1 (h) (Homo sapiens, UniProt P35367); assay: Radioligand binding assay, histaminergic H1 receptor; conditions: test compound 1×10^−6M; [3H]pyrilamine; human recombinant (HEK-293 cells)
# T11 construct: expressed in transfected cells; host or cells: HEK-293 cells
# Method: as §1, §2, §3
# M3 (h) = molecular target: T12, M3 (h) (Homo sapiens, UniProt P20309); assay: Radioligand binding assay, muscarinic M3 receptor; conditions: test compound 1×10^−6M; [3H]4-DAMP; human recombinant (CHO cells)
# T12 construct: expressed in transfected cells; host or cells: CHO cells
# Method: as §1, §2, §3
# α2C (h) = molecular target: T13, α2C (h) (Homo sapiens, UniProt P18825); assay: Radioligand binding assay, adrenergic receptor α2C; conditions: test compound 1×10^−6M; [3H]RX 821002; human recombinant (CHO cells)
# T13 construct: expressed in transfected cells; host or cells: CHO cells
# T13 sequence (P18825 1-462): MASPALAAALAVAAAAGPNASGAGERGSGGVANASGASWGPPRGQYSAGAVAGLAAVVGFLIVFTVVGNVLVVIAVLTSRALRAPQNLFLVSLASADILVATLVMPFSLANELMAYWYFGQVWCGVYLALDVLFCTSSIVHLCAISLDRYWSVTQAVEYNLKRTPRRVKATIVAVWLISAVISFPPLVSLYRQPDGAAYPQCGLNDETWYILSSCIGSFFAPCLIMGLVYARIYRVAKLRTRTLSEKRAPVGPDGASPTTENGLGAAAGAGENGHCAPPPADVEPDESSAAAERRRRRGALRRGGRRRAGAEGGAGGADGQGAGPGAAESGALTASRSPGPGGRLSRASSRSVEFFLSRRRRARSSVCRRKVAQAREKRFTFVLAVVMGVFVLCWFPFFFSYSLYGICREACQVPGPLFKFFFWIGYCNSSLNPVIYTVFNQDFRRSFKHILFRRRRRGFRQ
# Method: as §1, §2, §3
# SERT (h) = molecular target: T14, SERT (h) (Homo sapiens, UniProt P31645); assay: Radioligand binding assay, serotonin transporter (SERT); conditions: test compound 1×10^−6M; [3H]imipramine; human recombinant (CHO cells)
# T14 construct: expressed in transfected cells; host or cells: CHO cells
# Method: as §1, §2, §3
# T2 sequence (P14416 1-414 isoform P14416-2): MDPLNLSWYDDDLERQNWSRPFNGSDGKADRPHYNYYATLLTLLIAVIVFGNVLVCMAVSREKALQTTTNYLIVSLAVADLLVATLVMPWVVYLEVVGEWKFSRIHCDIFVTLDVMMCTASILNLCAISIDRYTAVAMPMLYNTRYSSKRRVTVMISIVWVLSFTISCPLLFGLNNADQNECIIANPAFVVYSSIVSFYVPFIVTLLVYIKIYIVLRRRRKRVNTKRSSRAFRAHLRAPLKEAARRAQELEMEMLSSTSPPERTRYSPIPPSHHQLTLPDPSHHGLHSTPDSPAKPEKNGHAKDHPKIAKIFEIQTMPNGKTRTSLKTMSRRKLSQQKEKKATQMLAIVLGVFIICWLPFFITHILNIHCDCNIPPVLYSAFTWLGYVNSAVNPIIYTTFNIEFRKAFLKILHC
# T9 sequence (P34969 whole entry): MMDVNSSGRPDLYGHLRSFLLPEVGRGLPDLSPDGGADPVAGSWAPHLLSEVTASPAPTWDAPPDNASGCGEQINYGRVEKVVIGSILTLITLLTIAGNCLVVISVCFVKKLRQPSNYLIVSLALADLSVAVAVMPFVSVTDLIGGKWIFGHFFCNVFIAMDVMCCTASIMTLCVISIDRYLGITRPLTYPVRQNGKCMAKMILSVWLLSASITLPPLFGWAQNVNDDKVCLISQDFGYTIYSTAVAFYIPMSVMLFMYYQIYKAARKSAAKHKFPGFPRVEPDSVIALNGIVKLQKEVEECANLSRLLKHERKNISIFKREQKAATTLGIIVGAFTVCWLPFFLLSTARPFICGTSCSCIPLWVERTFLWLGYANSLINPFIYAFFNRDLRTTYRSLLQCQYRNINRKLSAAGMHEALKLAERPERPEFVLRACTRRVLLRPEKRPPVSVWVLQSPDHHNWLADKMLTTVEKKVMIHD
# T4 sequence (P21728 whole entry): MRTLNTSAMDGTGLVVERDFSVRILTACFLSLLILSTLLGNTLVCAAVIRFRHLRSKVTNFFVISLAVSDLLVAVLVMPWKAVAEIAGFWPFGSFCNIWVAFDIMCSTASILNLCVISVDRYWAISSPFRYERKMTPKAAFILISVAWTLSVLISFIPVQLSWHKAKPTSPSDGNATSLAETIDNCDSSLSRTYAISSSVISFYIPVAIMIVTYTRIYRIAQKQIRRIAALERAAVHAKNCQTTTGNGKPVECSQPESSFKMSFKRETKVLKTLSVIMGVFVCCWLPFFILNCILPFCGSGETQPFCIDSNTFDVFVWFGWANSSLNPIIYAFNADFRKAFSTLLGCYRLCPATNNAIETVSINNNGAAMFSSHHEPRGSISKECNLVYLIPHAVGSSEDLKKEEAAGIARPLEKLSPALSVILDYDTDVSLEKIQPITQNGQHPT
# T8 sequence (P50406 whole entry): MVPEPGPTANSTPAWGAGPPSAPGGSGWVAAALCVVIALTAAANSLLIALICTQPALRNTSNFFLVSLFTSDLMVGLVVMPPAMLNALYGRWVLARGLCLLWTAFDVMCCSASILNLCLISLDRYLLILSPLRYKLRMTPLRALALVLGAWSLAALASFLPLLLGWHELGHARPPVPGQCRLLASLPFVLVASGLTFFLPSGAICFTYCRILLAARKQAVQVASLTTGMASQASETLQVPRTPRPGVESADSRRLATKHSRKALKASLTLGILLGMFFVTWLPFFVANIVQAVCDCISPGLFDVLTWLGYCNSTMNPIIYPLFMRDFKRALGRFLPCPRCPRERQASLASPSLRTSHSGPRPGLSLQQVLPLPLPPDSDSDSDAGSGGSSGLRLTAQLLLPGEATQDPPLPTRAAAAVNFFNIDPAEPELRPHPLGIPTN
# T11 sequence (P35367 whole entry): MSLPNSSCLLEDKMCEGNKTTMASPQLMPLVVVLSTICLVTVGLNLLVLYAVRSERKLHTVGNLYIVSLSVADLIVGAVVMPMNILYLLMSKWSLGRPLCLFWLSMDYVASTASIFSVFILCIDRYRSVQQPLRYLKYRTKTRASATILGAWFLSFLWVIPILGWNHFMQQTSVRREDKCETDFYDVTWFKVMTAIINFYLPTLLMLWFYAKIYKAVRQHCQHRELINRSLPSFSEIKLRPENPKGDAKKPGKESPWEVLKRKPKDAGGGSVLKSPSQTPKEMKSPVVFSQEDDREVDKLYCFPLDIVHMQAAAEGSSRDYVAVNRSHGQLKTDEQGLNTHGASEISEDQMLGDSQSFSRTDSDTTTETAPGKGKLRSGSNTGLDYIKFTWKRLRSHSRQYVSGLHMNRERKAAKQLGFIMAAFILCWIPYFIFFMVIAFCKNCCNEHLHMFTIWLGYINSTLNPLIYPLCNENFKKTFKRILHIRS
# T14 sequence (P31645 whole entry): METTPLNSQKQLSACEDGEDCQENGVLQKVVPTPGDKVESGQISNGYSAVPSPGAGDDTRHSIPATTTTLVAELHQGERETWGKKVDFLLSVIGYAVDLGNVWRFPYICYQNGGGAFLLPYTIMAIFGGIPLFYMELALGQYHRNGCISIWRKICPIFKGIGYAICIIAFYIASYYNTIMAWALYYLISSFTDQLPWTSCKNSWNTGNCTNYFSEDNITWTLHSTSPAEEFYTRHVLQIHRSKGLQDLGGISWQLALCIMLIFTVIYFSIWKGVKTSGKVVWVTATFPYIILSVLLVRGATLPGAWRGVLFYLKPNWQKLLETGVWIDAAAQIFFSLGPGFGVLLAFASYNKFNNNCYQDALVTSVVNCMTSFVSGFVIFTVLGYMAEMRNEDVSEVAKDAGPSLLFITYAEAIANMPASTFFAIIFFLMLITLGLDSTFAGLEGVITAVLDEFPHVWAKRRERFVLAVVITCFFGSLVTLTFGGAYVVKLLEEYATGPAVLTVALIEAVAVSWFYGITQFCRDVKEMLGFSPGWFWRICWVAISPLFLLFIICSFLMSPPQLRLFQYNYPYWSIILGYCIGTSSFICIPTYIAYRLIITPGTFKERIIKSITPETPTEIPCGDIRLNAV
# T3 sequence (P35462 whole entry): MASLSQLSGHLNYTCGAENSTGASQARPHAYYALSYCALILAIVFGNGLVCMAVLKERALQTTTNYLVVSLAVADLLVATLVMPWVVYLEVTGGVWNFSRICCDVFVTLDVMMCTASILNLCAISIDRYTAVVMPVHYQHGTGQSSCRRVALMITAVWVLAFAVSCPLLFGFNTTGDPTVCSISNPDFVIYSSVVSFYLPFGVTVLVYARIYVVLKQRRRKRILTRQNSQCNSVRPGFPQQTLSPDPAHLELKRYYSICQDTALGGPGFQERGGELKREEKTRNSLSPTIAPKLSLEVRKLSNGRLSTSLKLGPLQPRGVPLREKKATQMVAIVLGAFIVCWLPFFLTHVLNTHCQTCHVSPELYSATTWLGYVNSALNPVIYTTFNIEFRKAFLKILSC
# T7 sequence (P28223 whole entry): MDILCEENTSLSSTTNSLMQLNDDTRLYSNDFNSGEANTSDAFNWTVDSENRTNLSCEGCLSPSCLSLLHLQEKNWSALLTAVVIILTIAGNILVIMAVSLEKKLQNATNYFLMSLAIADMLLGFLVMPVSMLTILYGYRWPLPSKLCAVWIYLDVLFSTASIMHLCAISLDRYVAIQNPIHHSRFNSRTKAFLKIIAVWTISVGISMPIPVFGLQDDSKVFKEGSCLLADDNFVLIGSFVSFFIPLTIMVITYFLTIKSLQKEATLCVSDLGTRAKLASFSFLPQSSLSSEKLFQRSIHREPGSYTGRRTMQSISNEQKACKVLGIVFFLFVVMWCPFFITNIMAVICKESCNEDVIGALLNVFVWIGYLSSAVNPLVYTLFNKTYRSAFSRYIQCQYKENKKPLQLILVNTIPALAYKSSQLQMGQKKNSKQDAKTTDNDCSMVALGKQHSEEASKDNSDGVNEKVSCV
# T12 sequence (P20309 whole entry): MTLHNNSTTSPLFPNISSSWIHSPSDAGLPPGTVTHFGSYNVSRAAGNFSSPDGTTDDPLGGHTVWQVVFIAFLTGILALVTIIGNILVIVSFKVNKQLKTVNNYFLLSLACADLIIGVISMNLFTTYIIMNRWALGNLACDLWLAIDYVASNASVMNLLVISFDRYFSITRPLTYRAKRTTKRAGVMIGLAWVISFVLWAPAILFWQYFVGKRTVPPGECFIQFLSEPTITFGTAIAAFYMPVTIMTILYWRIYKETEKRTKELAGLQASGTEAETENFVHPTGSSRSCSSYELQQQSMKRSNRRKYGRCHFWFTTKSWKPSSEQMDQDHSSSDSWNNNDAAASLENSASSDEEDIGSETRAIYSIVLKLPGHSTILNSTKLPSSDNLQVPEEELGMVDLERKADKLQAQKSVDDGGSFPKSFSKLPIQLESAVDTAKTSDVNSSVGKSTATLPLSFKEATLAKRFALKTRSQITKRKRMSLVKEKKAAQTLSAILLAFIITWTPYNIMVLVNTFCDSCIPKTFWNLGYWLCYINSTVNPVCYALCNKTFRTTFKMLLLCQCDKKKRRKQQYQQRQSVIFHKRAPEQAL
Compound,hERG [%] (% Block) [1],MED (Minimum Effective Dose) (Male CD-1 mice) [mg/kg],D2 [%] (D2S (h)),D3 [%] (D3 (h)),D1 [%] (D1 (h)),D4.4 [%] (D4.4 (h)),5-HT1A [%] (5-HT1A (h)),5-HT2A [%] (5-HT2A (h)),5-HT6 [%] (5-HT6 (h)),5-HT7 [%] (5-HT7 (h)),5-HT2C [%] (5-HT2C (h)),σ [%] (σ (non-selective)),α1 [%] (α1 (non-selective)),H1 [%] (H1 (h)),M3 [%] (M3 (h)),α2C [%] (α2C (h)),SERT [%] (SERT (h))
"CN(CCCc1noc2cc(F)ccc12)Cc1cccc(NS(=O)(=O)c2ccccc2)c1 [Compound 60, N-[3-[[3-(6-fluoro-1,2-benzoxazol-3-yl)propylmethylamino]methyl]phenyl]benzenesulphonamide]",6,10,–,–,–,–,–,–,–,–,–,–,–,–,–,–,–
"CN(CCCc1noc2cc(F)ccc12)Cc1cccc(NS(=O)(=O)c2ccc(C(C)(C)C)cc2)c1 [Compound 72, 4-tert-butylo-N-[3-[[3-(6-fluoro-1,2-benzoxazol-3-yl)propylmethylamino]methyl]-phenyl]benzenesulphonamide]",–,–,93,63,45,60,30,87,99,93,23,80,77,64,25,81,42
"N-[3-[[3-(6-fluoro-1,2-benzoxazol-3-yl)propylamino]methyl]phenyl]naphthalene-1-sulphonamide [Compound 54]",–,–,94,76,27,54,43,80,88,90,17,50,48,7,2,32,42
